Measurements from patent US6433175B1, “Pyrroloindoles, pyridoindoles and azepinoindoles as 5-ht2c agonists” (Vernalis Research Limited, priority 1998, dated 2002).
Structures can show the parent of a compound that is named as a salt. Where two headings read alike, the source gives them in different places.

Experiments:
human 5-HT2C [1] = target: T1, human 5-HT2C (Homo sapiens, UniProt P28335); experiment: Functional activity, FLIPR calcium assay, CHO cells expressing human 5-HT2C; assay type: cell-based; set-up: expressed in transfected cells; host or cells: CHO cells; settings: for EC50: CHO cells; for h5-HT2c Relative Efficacy: maximum fluorescent signal relative to 10 μM 5-HT (100%)
T1 sequence (P28335 33-458): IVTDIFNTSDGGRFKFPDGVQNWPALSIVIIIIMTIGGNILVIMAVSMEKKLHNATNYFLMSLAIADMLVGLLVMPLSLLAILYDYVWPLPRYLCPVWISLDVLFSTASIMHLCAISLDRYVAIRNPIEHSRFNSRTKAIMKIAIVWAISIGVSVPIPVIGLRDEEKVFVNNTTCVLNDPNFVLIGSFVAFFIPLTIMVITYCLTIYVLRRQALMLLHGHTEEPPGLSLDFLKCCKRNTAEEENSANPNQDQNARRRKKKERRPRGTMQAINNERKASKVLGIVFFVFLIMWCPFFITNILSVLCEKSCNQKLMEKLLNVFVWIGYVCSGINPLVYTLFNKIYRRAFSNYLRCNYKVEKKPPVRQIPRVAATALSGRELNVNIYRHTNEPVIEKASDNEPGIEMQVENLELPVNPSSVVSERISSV
Experimental: (§1) The functional activity of compounds of formula (I) was assayed using a Fluorimetric Imaging Plate reader (FLIPR). CHO cells expressing the human 5-HT2C or human 5-HT2A receptors were counted and plated into standard 96 well microtitre plates on the day before testing to give a confluent monolayer. The cells were then dye loaded with the calcium sensitive dye, Fluo-3-AM. Unincorporated dye was removed using an automated cell washer to leave a total volume of 100 μL/well of assay buffer (Hanks balanced salt solution containing 20 mM Hepes and 2.5 mM probenecid). The drug (dissolved in 50 μL of the assay buffer) was added at a rate of 70 μL/sec to each well of the FLIPR 96 well plate during fluorescence measurements. The measurements were taken at 1 sec intervals and the maximum fluorescent signal was measured (approx 10-15 secs after drug addition) and compared with the response produced by 10 μM 5-HT (defined as 100%) to which it was expressed as a percentage response (relative efficacy). Dose response curves were constructed using Graphpad Prism (Graph Software Inc.).

5-HT2A receptor [2] = target: T2, 5-HT2A receptor (Homo sapiens, UniProt P28223); experiment: Functional activity, FLIPR calcium assay, CHO cells expressing human 5-HT2A; assay type: cell-based; set-up: expressed in transfected cells; host or cells: CHO cells; settings: for EC50: CHO cells; for h5-HT2A Relative Efficacy: maximum fluorescent signal relative to 10 μM 5-HT (100%)
T2 sequence (P28223 whole entry): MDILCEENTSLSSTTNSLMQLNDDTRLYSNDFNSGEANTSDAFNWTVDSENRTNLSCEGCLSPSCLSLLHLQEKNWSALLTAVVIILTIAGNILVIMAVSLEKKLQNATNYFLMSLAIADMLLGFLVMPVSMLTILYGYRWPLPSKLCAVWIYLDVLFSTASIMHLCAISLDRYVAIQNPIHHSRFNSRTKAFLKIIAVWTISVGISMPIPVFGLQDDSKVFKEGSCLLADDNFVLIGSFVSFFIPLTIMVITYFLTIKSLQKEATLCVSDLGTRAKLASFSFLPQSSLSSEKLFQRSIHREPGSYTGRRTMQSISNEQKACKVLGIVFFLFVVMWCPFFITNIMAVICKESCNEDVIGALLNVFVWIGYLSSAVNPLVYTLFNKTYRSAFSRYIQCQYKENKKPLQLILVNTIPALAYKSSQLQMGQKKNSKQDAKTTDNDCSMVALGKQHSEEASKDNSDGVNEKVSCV
Experimental: as §1

5-HT2A receptor [3] = target: T2, 5-HT2A receptor; experiment: Binding to 5-HT2A receptor, [125I]-DOI, CHO cell line; set-up: expressed in transfected cells; host or cells: CHO cell line
Experimental: (§2) The binding of compounds of formula (I) to serotonin receptors was determined in vitro by standard methods. The preparations were investigated in accordance with the assays given hereinafter.
Method (c): For the binding to the 5-HT2A receptor the 5-HT2A receptors were radiolabeled with [^125I]-DOI. The affinity of the compounds for 5-HT2A receptors in a CHO cell line was determined according to the procedure of D. J. McKenna and S. J. Peroutka, J. Neurosci., 1989, 9, 3482-90.

human 5-HT2C [4] = target: T1, human 5-HT2C; experiment: Binding to 5-HT2C receptor, [3H]-5-HT, CHO cell line; set-up: expressed in transfected cells; host or cells: CHO cell line
Experimental: as §2
Method (a): For the binding to the 5-HT2C receptor the 5-HT2C receptors were radiolabeled with [^3H]-5-HT. The affinity of the compounds for 5-HT2C receptors in a CHO cell line was determined according to the procedure of D. Hoyer, G. Engel and H. O. Kalkman, European J. Pharmacol., 1985, 118, 13-23.

human 5-HT2B receptors = target: T3, human 5-HT2B receptors (Homo sapiens, UniProt P41595); experiment: Binding to 5-HT2B receptor, [3H]-5-HT, CHO cell line
T3 construct: expressed in transfected cells; host or cells: CHO cell line
T3 sequence (P41595 whole entry): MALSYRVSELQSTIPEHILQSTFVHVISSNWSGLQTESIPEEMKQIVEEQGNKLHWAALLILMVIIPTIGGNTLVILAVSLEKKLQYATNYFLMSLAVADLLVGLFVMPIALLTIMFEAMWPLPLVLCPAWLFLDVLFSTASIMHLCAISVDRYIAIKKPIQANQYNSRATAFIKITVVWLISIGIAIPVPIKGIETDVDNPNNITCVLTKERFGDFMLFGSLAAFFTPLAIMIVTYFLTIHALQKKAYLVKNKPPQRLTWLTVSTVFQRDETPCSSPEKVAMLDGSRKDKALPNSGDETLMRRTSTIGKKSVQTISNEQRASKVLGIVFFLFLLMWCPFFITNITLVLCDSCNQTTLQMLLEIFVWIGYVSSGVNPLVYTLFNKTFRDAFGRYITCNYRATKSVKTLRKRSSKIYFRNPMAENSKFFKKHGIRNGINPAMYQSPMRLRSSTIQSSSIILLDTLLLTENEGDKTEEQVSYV
Experimental: as §2
Method (b): For the binding to the 5-HT2B receptor the 5-HT2B receptors were radiolabeled with [^3H]-5-HT. The affinity of the compounds for human 5-HT2B receptors in a CHO cell line was determined according to the procedure of K. Schmuck, C. Ullmer, P. Engels and H. Lubbert, FEBS Lett., 1994, 342, 85-90.

rats = experiment: In vivo efficacy: 5-HT2C syndrome in rats; set-up: species or system rat; settings: 20 mg/kg s.c.
Experimental: The in vivo efficacy of 5-HT2C agonists was assessed by the ability of the compounds to induce three specific behaviours (5HT2C Syndrome) in rats.
The 5-HT2c syndrome is a rapid screening method to assess the in vivo efficacy of 5-HT2c agonists through their ability to induce three specific behaviours in rats. The animals were dosed with either a positive control (mCPP), test compound or vehicle, either sub-cutaneously or p.o. The animals were observed on an open bench, typically 30, 60 and 180 minutes after dosing and the degree of syndrome was assessed over a two minute period on a scale of 0-3 depending on the presence and severity of splayed limbs, hunched posture and retro-pulsion, the three specific behaviours which constitute the syndrome. Data were analysed using Kruskal-Wallis Analysis of Variance followed with appropriate post-hoc tests. All statistical analysis were conducted using Excel version 7.0 (Microsoft Corp.) and Statistica version 5.0 (Statsoft, Inc.).

[5] = [125I]-DOI, CHO cell line, read-out: Ki (2A)
[6] = [3H]-5-HT, CHO cell line, read-out: Ki (2C)
[7] = [3H]-5-HT, human receptor, CHO cell line, read-out: Ki (2B)

| SMILES | EC50 (human 5-HT2C [1]; h5-HT2c EC50, FLIPR) [nM] | h5-HT2c Relative Efficacy (human 5-HT2C [1]) [%] | EC50 (5-HT2A receptor [2]; FLIPR, read-out: h5-HT2A EC50) [nM] | h5-HT2A Relative Efficacy (5-HT2A receptor [2]) [%] | melting point | further results |
| --- | --- | --- | --- | --- | --- | --- |
| COc1ccc2c(c1)c(CC(C)N)c1n2CCC1 (single isomer, unassigned; enantiomer 2) [Example 9, Enantiomer 2 of 1-(7-Methoxy-2,3-dihydro-1H-pyrrolo[1,2-a]indol-9-yl)-2-propylamine fumarate] | 7 | 81 | 792 | 40 | – | – |
| CC(N)Cc1c2n(c3cc4c(cc13)OCO4)CCC2 (racemic) [Example 7, (RS)-1-[6,7-(Methylenedioxy)-2,3-dihydro-1H-pyrrolo[1,2-a]indol-9-yl]-2-propylamine fumarate] | 227 | 59 | 2620 | 37 | – | – |
| CC(N)Cc1c2n(c3cc(F)c(F)cc13)CCC2 (racemic) (as salt: hydrochloride) [Example 2, (RS)-1-(6,7-Difluoro-2,3-dihydro-1H-pyrrolo[1,2-a]indol-9-yl)-2-propylamine hydrochloride] | – | – | – | – | 264 to 266 °C | – |
| CC(N)Cc1c2n(c3ccc(Cl)cc13)CCC2 (racemic) (as salt: hydrochloride) [Example 1, (RS)-1-(7-Chloro-2,3-dihydro-1H-pyrrolo[1,2-a]indol-9-yl)-2-propylamine hydrochloride] | – | – | – | – | 272 to 273 °C | – |
| CSc1ccc2c(c1)c(CC(C)N)c1n2CCC1 (racemic) (as salt: fumarate) [Example 11, (RS)-1-(7-Methylthio-2,3-dihydro-1H-pyrrolo[1,2-a]indol-9-yl)-2-propylamine fumarate] | – | – | – | – | 204 to 206 °C (dec.) | – |
| COc1ccc2c(c1)c(CC(C)NCCC(C)C)c1n2CCC1 (racemic) (as salt: hydrochloride) | – | – | – | – | 118 to 121 °C | – |
| CC(N)Cc1c2n(c3ccc(Cl)cc13)CCC2 (racemic) [Example 1, (RS)-1-(7-Chloro-2,3-dihydro-1H-pyrrolo[1,2-a]indol-9-yl)-2-propylamine hydrochloride] | 96 | 68 | 3240 | 33 | – | Ki (5-HT2A receptor [3]; [5]): 457 nM; Ki (human 5-HT2C [4]; [6]): 110 nM; Ki (human 5-HT2B receptors; [7]): 229 nM |
| Cc1ccc2c(c1)c(CC(C)N)c1n2CCC1 (racemic) (as salt: fumarate) [Example 6, (RS)-1-(7-Methyl-2,3-dihydro-1H-pyrrolo[1,2-a]indol-9-yl)-2-propylamine fumarate] | – | – | – | – | 138 to 139 °C | – |
| COc1ccc2c(c1)c(CC(C)NCC1CCCCC1)c1n2CCC1 (racemic) (as salt: hydrochloride) | – | – | – | – | 210 to 213 °C | – |
| CC(N)Cc1c2n(c3cccc(Cl)c13)CCC2 (racemic) (as salt: fumarate) | – | – | – | – | 207 to 208 °C | – |
| COc1ccc2c(c1)c(CC(C)N)c1n2CCC1 (single isomer, unassigned; enantiomer 1) [Example 8] | 33 | 58 | 921 | 36 | – | – |
| COc1ccc2c(c1)c(CC(C)N)c1n2CCC1 (racemic) (as salt: fumarate) [Example 3, (RS)-1-(7-Methoxy-2,3-dihydro-1H-pyrrolo[1,2-a]indol-9-yl)-2-propylamine fumarate] | – | – | – | – | 194 to 196 °C | – |
| CC(N)Cc1c2n(c3ccc(Br)cc13)CCC2 (racemic) [Example 5, (RS)-1-(7-Bromo-2,3-dihydro-1H-pyrrolo[1,2-a]indol-9-yl)-2-propylamine fumarate] | 94 | 69 | 4020 | 33 | – | Ki (5-HT2A receptor [3]; [5]): 448 nM; Ki (human 5-HT2C [4]; [6]): 81 nM; Ki (human 5-HT2B receptors; [7]): 122 nM |
| CC(N)Cc1c2n(c3ccc(OCc4ccccc4)cc13)CCC2 (racemic) (as salt: fumarate) | – | – | – | – | 146 to 147 °C (dec.) | – |
| COc1ccc2c(c1)c(CC(C)N)c1n2CCC1 (racemic) [Example 3, (RS)-1-(7-Methoxy-2,3-dihydro-1H-pyrrolo[1,2-a]indol-9-yl)-2-propylamine fumarate] | 32 | 63 | 636 | 22 | – | Ki (5-HT2A receptor [3]; [5]): 151 nM; Ki (human 5-HT2C [4]; [6]): 118 nM; Ki (human 5-HT2B receptors; [7]): 220 nM; time for which significant pharmacological efficacy is maintained (5-HT2C syndrome) (rats): at least 180 minutes |
| CSc1ccc2c(c1)c(CC(C)N)c1n2CCC1 (racemic) [Example 11, (RS)-1-(7-Methylthio-2,3-dihydro-1H-pyrrolo[1,2-a]indol-9-yl)-2-propylamine fumarate] | 8 | 80 | > 10000 | – | – | Ki (5-HT2A receptor [3]; [5]): 316 nM; Ki (human 5-HT2C [4]; [6]): 84 nM; Ki (human 5-HT2B receptors; [7]): 115 nM |
| CC(N)Cc1c2n(c3cc(F)c(F)cc13)CCC2 (racemic) [Example 2, (RS)-1-(6,7-Difluoro-2,3-dihydro-1H-pyrrolo[1,2-a]indol-9-yl)-2-propylamine hydrochloride] | – | 38 | – | 12 | – | EC50 (human 5-HT2C [1]; FLIPR, read-out: h5-HT2c EC50): 147 nM; EC50 (5-HT2A receptor [2]; h5-HT2A EC50, FLIPR): > 1000 nM; Ki (5-HT2A receptor [3]): 257 nM; Ki (human 5-HT2C [4]): 97 nM; Ki (human 5-HT2B receptors): 102 nM |
| COc1ccc2c(c1)c(CC(C)NCC(C)(C)C)c1n2CCC1 (racemic) (as salt: hydrochloride) | – | – | – | – | 226 to 228 °C | – |
| Cc1ccc2c(c1)c(CC(C)N)c1n2CCC1 (racemic) [Example 6, (RS)-1-(7-Methyl-2,3-dihydro-1H-pyrrolo[1,2-a]indol-9-yl)-2-propylamine fumarate] | 348 | 56 | > 10000 | – | – | – |
| COc1ccc2c(c1)c(CC(C)NCC1CC1)c1n2CCC1 (racemic) (as salt: hydrochloride) | – | – | – | – | 149 to 151 °C | – |
